Organism: Mus musculus
Test: Hydroxyl radical scavenging activity by chemiluminescence technique in mouse thymus cells
Format: functional

SMILES	IC50 (Mus musculus, read-out: IC50)	IC50
O=C([O-])CCNC12c3c4c5c6c7c8c(c9c%10c1c1c3c3c%11c4c4c5c5c7c7c%12c8c8c9c9c%10c%10c1c1c3c3c%11c%11c4c4c5c7c5c7c%12c8c8c9c9c%10c1c1c3c3c%11c4c5c4c7c8c9c1c34)C62.[Na+] (stereo unspecified)		147.2 uM l-1
O=C(O)c1ccccc1 [BENZOIC ACID]		16600 uM l-1
OC[C@@H](O)[C@@H](O)[C@H](O)[C@H](O)CO [MANNITOL]		13800 uM l-1
NC(N)=S [THIOUREA]		1200 uM l-1

Further lines, results first:

IC50 (Mus musculus, read-out: IC50)	IC50	SMILES
76.3 µM		CN(CCC(=O)O)C12C3=c4c5c6c7c8c9c%10c%11c%12c%13c%14c%15c%16c%17c%18c%19c%20c(c4c4c5c8c(c%139)c(c%14%18)c%194)C4(NCCC(=O)O)C5=c8c9c(c-%16c%13c%14c%16c(c-%11c%11c%18c(c%19c1c(c8c(c9%14)c%19c%18%16)C34)=C(C62)C7(NCCC(=O)O)C%11%10)C%13C%12%15NCCC(=O)O)C%17C5%20NCCC(=O)O (stereo unspecified)
96.2 µM		CN(CCC(=O)O)C12C3=C4c5c6c7c8c9c%10c%11c%12c%13c%14c%15c%16c%17c%18c(c5c8c(c%15%18)c%139)C4(NCCC(=O)O)C4C=%17C5(NCCC(=O)O)C(=C8c9c1c1c%13c%15c%17c%18c%19c%20c%21c(c8c%19c9%15)C5C=%16C%21(NCCC(=O)O)C%14C%12(NCCC(=O)O)C%20C%18(NCCC(=O)O)C%11C5(NCCC(=O)O)C%17C%13=C(C6(NCCC(=O)O)C31)C7(NCCC(=O)O)C%105)C42 (stereo unspecified)

— ChEMBL document CHEMBL1137956, “Different hydroxyl radical scavenging activity of water-soluble beta-alanine C60 adducts” (Bioorg Med Chem Lett, 2004)
